Reference: publication PMC8831599, “Defining molecular glues with a dual-nanobody cannabidiol sensor” (Nature Communications, 2022)

Columns and labels:
[1] = target: T1, TIR1 (Arabidopsis thaliana, UniProt Q570C0); experiment: ITC; BLI and AlphaScreen with IAA7 degron; assay type: binding
T1 construct: TIR1-ASK1 co-expressed complex; with ASK1

[2] = target: T2, CA14 (anchor binder nanobody); experiment: ITC; […] Å crystal structure of the CA14-CBD-DB21 ternary complex; assay type: binding
T2 construct: nanobody CA14, tag-free; CA14 alone in ITC

T1 sequence (Q39255 whole entry): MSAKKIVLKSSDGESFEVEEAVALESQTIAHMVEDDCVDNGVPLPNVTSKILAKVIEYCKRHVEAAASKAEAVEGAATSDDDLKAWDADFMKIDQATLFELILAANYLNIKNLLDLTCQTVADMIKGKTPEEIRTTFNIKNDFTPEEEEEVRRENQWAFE
T1 sequence (Q570C0 whole entry): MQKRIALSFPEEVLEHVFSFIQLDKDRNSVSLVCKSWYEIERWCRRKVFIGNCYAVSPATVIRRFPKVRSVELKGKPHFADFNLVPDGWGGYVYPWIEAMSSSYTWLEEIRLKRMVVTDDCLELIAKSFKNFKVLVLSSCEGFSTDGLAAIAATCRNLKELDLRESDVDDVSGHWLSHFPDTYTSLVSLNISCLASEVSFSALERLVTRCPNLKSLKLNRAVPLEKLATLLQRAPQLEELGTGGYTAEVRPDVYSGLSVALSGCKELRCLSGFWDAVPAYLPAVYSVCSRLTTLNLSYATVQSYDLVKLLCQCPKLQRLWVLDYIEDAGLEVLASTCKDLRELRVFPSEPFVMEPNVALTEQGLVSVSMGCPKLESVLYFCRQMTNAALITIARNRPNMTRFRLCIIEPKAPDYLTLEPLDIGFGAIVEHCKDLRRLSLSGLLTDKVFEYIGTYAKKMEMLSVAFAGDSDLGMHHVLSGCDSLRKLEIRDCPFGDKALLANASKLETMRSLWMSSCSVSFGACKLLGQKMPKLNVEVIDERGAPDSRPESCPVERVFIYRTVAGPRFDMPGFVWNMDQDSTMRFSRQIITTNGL

Structure (SMILES)	Kd [1]	Kd [2]
O=C(O)Cc1c[nH]c2ccccc12 [auxin]	13.4 µM	
C=C(C)[C@@H]1CCC(C)=C[C@H]1c1c(O)cc(CCCCC)cc1O [CBD, cannabidiol]		2.2 µM
